Here are results for eight molecules from patent US20050009865A1, “Quinoline derivative as diagnostic probe for disease with tau protein accumulation” (priority 2002, published 2005).

Entries after “also recorded” stand apart in the source; their conditions may differ.

Data set [1] in a line: Testing of blood-brain barrier permeability. Format: in vivo. The conditions noted are these: mice, two minutes after intravenous administration.
Description: Compounds of the present invention were intravenously administered to mice to determine their in vivo blood-brain barrier permeability. • (1) Mice utilized S1c:ICR weighing 30-40 g (7 weeks old, n=3) (Nippon SLC). • (2) A test compound was dissolved in 1N HCl, and then diluted with purified water, and injected via tail vein. Two minutes after administration, the mice, under ether anesthesia, were subjected to taking blood from the abdominal aorta with a heparin-treated syringe and removing the brain. • (3) After taking blood, blood samples were centrifuged at 14,000 rpm at 4° C. for 10 minutes, and their supernatants were kept at −80° C. as plasma sample. The brain (including cerebellum) was kept at −80° C. after its removal. • (4) The plasma sample, when used, was thawed, diluted with purified water, and then applied to a conditioned C18 solid-phase extraction cartridge (bond elute C18, 200 mg, Lot. 070864, Varian), followed by elution with methyl alcohol. • (5) The brain material, when used, were subjected to measuring its wet weight with the brain remaining frozen, and saline was added for homogenization. The homogenate was centrifuged for 10 minutes, and the supernatant was applied to a conditioned C18 solid-phase extraction cartridge and eluted with methyl alcohol. • (6) The test compound was detected at its maximum absorbance (a UV/VIS detector, Waters) and fluorescence (an FS-8020 fluorometer, Tosoh) employing high performance liquid chromatography. • (7) For each of the plasma and brain, the content of the test compound in the plasma or brain (%ID (injected dose)/ml or g) was determined, relative to the administered-dose.
The nature of data set [2]: Testing of acute toxicity, intravenous administration. The note with it: male, Crj:CD1, mouse, in vivo, mice, observed up to 7 days, read-out: Maximum Tolerated Dose. On the procedure:
Acute toxicity of the inventive compounds was determined employing mice by intravenous administration. Male Crj:CD1 mice were used and divided into groups of 4 mice, with an average weight of each group of 30-34 g. Each compound was dissolved in saline, 1N HCl, or a mixture of 1N HCl/polyethylene glycol 400, and then diluted with distilled water for injection, and administered via tail vein. Up to 7 days after administration, observations were made.

Data set [3] has as its system neurofibrillary tangles (or phosphorylated tau protein). The experiment in a line: Staining of neurofibrillary tangles in brain sections of a patient with Alzheimer's disease (screening method). Type of data set: binding, human. The conditions noted are these: for staining of neurofibrillary tangles (or phosphorylated tau protein): brain/hippocampus sections of Alzheimer's disease patient, 100 μM compound in 50% ethanol, fluorescence microscopy, compared with thioflavin S on adjacent section. From the text: (§1) The following explanation is made about a method for screening the inventive compounds. • (1) Temporal lobe or hippocampus specimens of the brain of a patient who had been definitely diagnosed pathologically as Alzheimer's disease and of a normal aged individual were used. These specimens were provided from Fukushimura Hospital, our joint research facility, with the consent to their use for research purpose received from the bereaved family of the patient (BF Research Laboratories Institutional Ethics Board Permission No. RS-99-02). • (2) The brain tissues embedded in paraffin were sliced 6 or 8 μm thick, extended on slides, and dried. The paraffin-embedded brain sections were deparaffined by washing sequentially with xylene (10 minutes, twice), 100% ethanol (5 minutes, twice), 95% ethanol (5 minutes, twice), and a stream of water (10 minutes). • (3) Pre-treatment for staining with compounds of the present invention involved treating the sections for eliminating self-fluorescence due to lipofuscin. First, the deparaffined sections were immersed into a 10% formalin solution for 60 minutes and washed with PBS (phosphate-buffered saline) for 5 minutes, followed by immersion into a 0.25% solution of KMnO4 for 90 minutes. After washing twice with PBS for 2 minutes each, the sections were immersed into a solution of 0.1% K2S2O5/oxalic acid for about 30 seconds each, and then washed three times with PBS for 2 minutes each. • (4) About 150 μl of a 100 μM solution of a compound of the present invention dissolved in 50% ethanol was added dropwise onto the sections and allowed the reaction to be carried out for 10 minutes. The sections were dipped into tap water five times, and then 50% ethanol three to five times, followed by immediate classification. After that, the sections were immersed into PBS for 60 minutes, enclosed with Fluor Save Reagent (Calbiochem), and examined under UV-B excitation using a fluorescent microscope (Nikon, Eclips E800). Pictures were taken using a digital camera (Plaroid [sic] PDMCII).
Immunostaining was carried out as follows: • (1) After the sections were deparaffined, the sections were washed twice with distilled water for 2 minutes each, tissues were marked with an Immunopen. About 150 μl of 3% hydrogen peroxide (diluted in methanol) was added dropwise and allowed to stand at room temperature for 10 minutes. • (2) The sections were-washed twice with cold PBS-Tween 20 for 5 minutes each, and two drops of blocking serum were added and allowed the reaction to be carried out at 37° C. for 30 minutes. Excess water was removed, and two drops of pSer422, an antibody specific to phosphorylated tau (Wako Phosphorylated Tau Immunohistostain Kit 299-57301) and allowed the reaction to be carried out overnight at 4° C. • (3) On the next day, the sections were washed five times with cold PBS-Tween 20 for 2 minutes each, and two drops of a solution of goat anti-rabbit IgG conjugated to biotin were added and allowed the reaction to be carried out at 37° C. for 1 hour. […]

For the next data set, the system named is senile plaques. The data set is described as follows: Staining of senile plaques in hippocampus sections of the brain of a patient with Alzheimer's disease. Type of data set: binding, human. The conditions noted are these: compared with thioflavin S on adjacent section.
From the text: as §1

Data set [4] has as its target T1, Aβ1-40 taking β-sheet structures (Homo sapiens, UniProt P05067).
T1 construct: Aβ1-40 (Peptide Institute, Inc., Lot No. 520311, MW: 4329.8); purchased Peptide Institute, Inc. Lot No. 520311
The data set is described as follows: Binding to amyloid β-protein on slides. The conditions noted are these: Aβ1-40 on slides; 1 μM solution of test chemical. On the procedure: Properties of binding to amyloid β-protein were examined as follows: • (1) Aβ1-40 (Peptide Institute, Inc., Lot No. 520311, MW: 4329.8) was dissolved in 50 mM potassium phosphate buffer (pH 7.4) at a concentration of 500 μM, and incubated at 37° C. for 3 days or longer, thereby making the protein take β-sheet structures. • (2) After incubation, the Aβ solution was vortexed and diluted to 50 μM for use. • (3) 20 μl of the Aβ1-40 solution was dropped onto a poly-L-lysine-coated slide (MICRO SLIDE GLASS S7441, […]) and dried on an extender (Sakura PS-C2) at about 45° C. • (4) The Aβ1-40 on the slide was covered with 20 μl of 1 μM solution of a chemical to be tested, allowed to stand at room temperature for about 10 minutes, and then washed with a stream of water (tap water), followed by examination under a microscope.

T1 sequence (P05067 672-711 limits assumed): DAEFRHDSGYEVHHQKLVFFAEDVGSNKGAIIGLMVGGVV

With `CNc1ccc(-c2ccc3ccccc3n2)cc1` [BF-158, 2-(4-(methylamino)phenyl)quinoline], in data set [1], the “Brain content (blood-brain barrier permeability)” value (“Brain content” for short) is 9.7 % ID/g or ml and the Plasma content is 1.8 % ID/g or ml. The MTD at 7 days in data set [2] was no less than 10 mg/kg.

`Nc1ccc(-c2ccc3ccccc3n2)cc1` [BF-170, 2-(4-(amino)phenyl)quinoline]: in data set [1], the “Brain content” value is 9.1 % ID/g or ml and the Plasma content is 1.4 % ID/g or ml. The “staining of neurofibrillary tangles (or phosphorylated tau protein)” value (“staining of neurofibrillary tangles” below) in data set [3] is reported as “stained only neurofibrillary tangles (or phosphorylated tau protein)”. The “staining of phosphorylated tau protein recognized by pSer422 antibody” value in data set [3] (hippocampus sections of Alzheimer's disease patient, adjacent section immunostained with pSer422) was “stained phosphorylated tau protein which was recognized by pSer422”. Moreover, the “staining of senile plaques” value with senile plaques is on record as “stained only neurofibrillary tangles (or phosphorylated tau protein)”. In data set [4], the “binding to Aβ1-40 taking β-sheet structures (fluorescence)” value was “hardly bound to this Aβ1-40 (fluorescence was not observed); also recorded: hardly bound to the Aβ1-40 protein (fluorescence was not observed)”. Further, the MTD at 7 days in data set [2] was no less than 10 mg/kg.

With `CN(C)c1ccc(-c2ccc3ccccc3n2)cc1` [Compound N-310, 2-(4-(dimethylamino)phenyl)quinoline], in data set [1], the “Brain content” value is reported as 15.0 % ID/g or ml and the Plasma content is given as 1.0 % ID/g or ml. In addition, the “staining of neurofibrillary tangles” value in data set [3] was “stained neurofibrillary tangles (or phosphorylated tau protein)”.

`CCN(CC)c1ccc(-c2ccc3ccccc3n2)cc1` [Compound N-313, 2-(4-(diethylamino)phenyl)quinoline]: in data set [1], the “Brain content” value was 4.6 % ID/g or ml and the Plasma content is listed as 1.1 % ID/g or ml. The “staining of neurofibrillary tangles” value in data set [3] is listed as “stained neurofibrillary tangles (or phosphorylated tau protein)”. Further, the MTD at 7 days in data set [2] was no less than 10 mg/kg.

As for `Cc1ccc2ccc(-c3ccc(N(C)C)cc3)nc2c1` [SA-820, 2-(4-(dimethylamino)phenyl)-7-methylquinoline], the “staining of senile plaques” value in the data set on senile plaques is reported as “stained senile plaques (wedge-shaped arrowheads) with a clearly weaker degree than that of thioflavin S; also recorded: stained senile plaques (wedge-shaped arrowheads) with a clearly-weaker degree than that of thioflavin S”.

Take `CN(C)c1ccc(-c2ccc3c(ccc4ccccc43)n2)cc1` [SA-821, 3-(4-(dimethylamino)phenyl)benzo(f)quinoline]: the “staining of senile plaques” value with senile plaques is “stained senile plaques (wedge-shaped arrowheads) with a clearly weaker degree than that of thioflavin S”.

As for `Cc1ccc2c(c1)sc(-c1ccc(N(C)C)cc1)[n+]2C.[Cl-]` [thioflavin T, reference compound], the “binding to Aβ1-40 taking β-sheet structures (fluorescence)” value in data set [4] was “significant binding to this Aβ1-40; also recorded: significant binding to the Aβ1-40 protein”.

For the molecule thioflavin S [reference compound], the “staining of neurofibrillary tangles” value in data set [3] was “stained both senile plaques (wedge-shaped arrowheads) and neurofibrillary tangles (or phosphorylated tau protein); also recorded: stained both senile plaques and neurofibrillary tangles”. Besides, the “staining of senile plaques” value in the data set on senile plaques was “stained both senile plaques (wedge-shaped arrowheads) and neurofibrillary tangles (or phosphorylated tau protein); also recorded: stained both senile plaques and neurofibrillary tangles”.
